Columns and labels:
[1] = photoconversion of compound A into the UVA filter avobenzone on irradiation; format: physicochemical
Description: As representative of the compounds of the formula (I), the efficacy of 3-(4-tert-butylphenyl)-3-hydroxy-1-(4-methoxyphenyl)propan-1-one in vivo is confirmed in the experimental part, where the proportion of UVA filter formed by decomposition of 3-(4-tert-butylphenyl)-3-hydroxy-1-(4-methoxy-phenyl)propan-1-one on exposure to UV light under the selected conditions of the study is only 0.1% by weight.
Under the conditions of the in vivo study, conversion of compound A into the UVA filter avobenzone in an amount which could exert an influence on the skin appearances of the test subjects can be excluded.
This can be stated because if a 2% solution of compound A in Cosmacol® ELI (C12-13 alkyl lactate) is irradiated with UVA/UVB light (20/1) in a dose of 5 MED (corresponding to 250 kJ/m^2), 0.1% of avobenzone is formed by conversion.
Under the conditions of the in vivo experiment, a UVA dose of 20 J/cm^2 (corresponding to 200 kJ/m^2) is irradiated, i.e. even less than 0.1% of avobenzone will form by conversion under these conditions.

UV absorption spectrum = format: physicochemical
Description: The absorption behaviour for the compound 3-(4-tert-butylphenyl)-3-hydroxy-1-(4-methoxy-phenyl)propan-1-one is depicted in FIG. 1 as representative.

[2] = tested on: test subjects with known PLE syndrome; assay: in vivo comparative study, skin reactions on UVA irradiation of treated skin; parameters: key to skin reaction on UVA irradiation, treated skin: 0 denotes no reaction; ± denotes weak reaction; + denotes clear reaction; ++ denotes strong reaction; +++ denotes very strong reaction; conditions: for skin reaction on UVA irradiation, treated skin: 2.0% by wt. in O/W emulsion, 2 mg/cm^2 daily
Procedure: In the in vivo study described below, the following O/W emulsion is used:
A comparative study with positive control is carried out on 6 test subjects with known PLE syndrome. The study was carried out in Germany in April over a period of 5 days. The positive control was untreated, irradiated skin. The irradiation was carried out with 100% UVA light in a sub-erythemal dose, which was determined individually. The preparation was applied daily to half of the décolletage (2 mg/cm^2).
The measurements were carried out twice daily, 10 min. after application of the preparation and immediately after irradiation.
In the case of all test subjects, skin manifestations which have the presentation of polymorphic light eruption appeared on untreated skin. In case of 4 test subjects, no polymorphic light eruption was observed on treated skin. Only in the case of 2 test subjects was a weak reaction observed.

[3] = tested on: transcription factor NF-κB; assay: inhibition of activation of the transcription factor NF-κB
Description: It is furthermore thought that the compounds of the formula (I), as described above or preferably described below, have an inflammation-inhibiting action. This property also supports the therapeutic and non-therapeutic treatment of photodermatosis. […] 1998, 95(6):729-31.

[4] = of 6 test subjects with known PLE syndrome, 5 days, UVA irradiation

COc1ccc(C(=O)CC(O)c2ccc(C(C)(C)C)cc2)cc1 (stereo not shown) [Compound A, 3-(4-tert-butylphenyl)-3-hydroxy-1-(4-methoxyphenyl)-propan-1-one]
avobenzone formed by conversion ([1]; 2% solution in Cosmacol ELI (C12-13 alkyl lactate), UVA/UVB light (20/1), dose 5 MED (250 kJ/m^2)): 0.1%
avobenzone formed by conversion ([1]; conditions of the in vivo experiment, UVA dose 20 J/cm^2 (200 kJ/m^2)): less than 0.1%
proportion of UVA filter formed by decomposition on exposure to UV light ([1]; under the selected conditions of the study): 0.1 % by weight
absorption in the UVA region (UV absorption spectrum; UVA, 320-400 nm): does not absorb in the UVA region
absorption (UV absorption spectrum; wavelength 215.5 nm): 0.22
absorption (UV absorption spectrum; wavelength 273 nm): 0.22
effect on manifestations of polymorphic light eruption on irradiation ([2]; 6 test subjects, treated vs untreated irradiated skin): suppresses or significantly reduces the manifestations of polymorphic light eruption
test subjects with no polymorphic light eruption observed on treated skin [2, 4]: 4 test subjects
test subjects with weak reaction on treated skin [2, 4]: 2 test subjects
skin reaction on UVA irradiation, treated skin ([2]; test subject 1, day 1, after irradiation): 0
skin reaction on UVA irradiation, treated skin ([2]; test subject 1, day 1, before irradiation): 0
skin reaction on UVA irradiation, treated skin ([2]; test subject 1, day 2, after irradiation): 0
skin reaction on UVA irradiation, treated skin ([2]; test subject 1, day 2, before irradiation): 0
skin reaction on UVA irradiation, treated skin ([2]; test subject 1, day 3, after irradiation): 0
skin reaction on UVA irradiation, treated skin ([2]; test subject 1, day 3, before irradiation): 0
skin reaction on UVA irradiation, treated skin ([2]; test subject 1, day 4, after irradiation): ±
skin reaction on UVA irradiation, treated skin ([2]; test subject 1, day 4, before irradiation): ±
skin reaction on UVA irradiation, treated skin ([2]; test subject 1, day 5, after irradiation): ±
skin reaction on UVA irradiation, treated skin ([2]; test subject 1, day 5, before irradiation): ±
skin reaction on UVA irradiation, treated skin ([2]; test subject 2, day 1, after irradiation): 0
skin reaction on UVA irradiation, treated skin ([2]; test subject 2, day 1, before irradiation): 0
skin reaction on UVA irradiation, treated skin ([2]; test subject 2, day 2, after irradiation): 0
skin reaction on UVA irradiation, treated skin ([2]; test subject 2, day 2, before irradiation): 0
skin reaction on UVA irradiation, treated skin ([2]; test subject 2, day 3, after irradiation): 0
skin reaction on UVA irradiation, treated skin ([2]; test subject 2, day 3, before irradiation): 0
skin reaction on UVA irradiation, treated skin ([2]; test subject 2, day 4, after irradiation): 0
skin reaction on UVA irradiation, treated skin ([2]; test subject 2, day 4, before irradiation): 0
skin reaction on UVA irradiation, treated skin ([2]; test subject 2, day 5, after irradiation): 0
skin reaction on UVA irradiation, treated skin ([2]; test subject 2, day 5, before irradiation): 0
skin reaction on UVA irradiation, treated skin ([2]; test subject 3, day 1, after irradiation): 0
skin reaction on UVA irradiation, treated skin ([2]; test subject 3, day 1, before irradiation): 0
skin reaction on UVA irradiation, treated skin ([2]; test subject 3, day 2, after irradiation): 0
skin reaction on UVA irradiation, treated skin ([2]; test subject 3, day 2, before irradiation): 0
skin reaction on UVA irradiation, treated skin ([2]; test subject 3, day 3, after irradiation): 0
skin reaction on UVA irradiation, treated skin ([2]; test subject 3, day 3, before irradiation): 0
skin reaction on UVA irradiation, treated skin ([2]; test subject 3, day 4, after irradiation): 0
skin reaction on UVA irradiation, treated skin ([2]; test subject 3, day 4, before irradiation): 0
skin reaction on UVA irradiation, treated skin ([2]; test subject 3, day 5, after irradiation): 0
skin reaction on UVA irradiation, treated skin ([2]; test subject 3, day 5, before irradiation): 0
skin reaction on UVA irradiation, treated skin ([2]; test subject 4, day 1, after irradiation): 0
skin reaction on UVA irradiation, treated skin ([2]; test subject 4, day 1, before irradiation): 0
skin reaction on UVA irradiation, treated skin ([2]; test subject 4, day 2, after irradiation): 0
skin reaction on UVA irradiation, treated skin ([2]; test subject 4, day 2, before irradiation): 0
skin reaction on UVA irradiation, treated skin ([2]; test subject 4, day 3, after irradiation): 0
skin reaction on UVA irradiation, treated skin ([2]; test subject 4, day 3, before irradiation): 0
skin reaction on UVA irradiation, treated skin ([2]; test subject 4, day 4, after irradiation): 0
skin reaction on UVA irradiation, treated skin ([2]; test subject 4, day 4, before irradiation): 0
skin reaction on UVA irradiation, treated skin ([2]; test subject 4, day 5, after irradiation): 0
skin reaction on UVA irradiation, treated skin ([2]; test subject 4, day 5, before irradiation): 0
skin reaction on UVA irradiation, treated skin ([2]; test subject 5, day 1, after irradiation): 0
skin reaction on UVA irradiation, treated skin ([2]; test subject 5, day 1, before irradiation): 0
skin reaction on UVA irradiation, treated skin ([2]; test subject 5, day 2, after irradiation): 0
skin reaction on UVA irradiation, treated skin ([2]; test subject 5, day 2, before irradiation): 0
skin reaction on UVA irradiation, treated skin ([2]; test subject 5, day 3, after irradiation): 0
skin reaction on UVA irradiation, treated skin ([2]; test subject 5, day 3, before irradiation): 0
skin reaction on UVA irradiation, treated skin ([2]; test subject 5, day 4, after irradiation): 0
skin reaction on UVA irradiation, treated skin ([2]; test subject 5, day 4, before irradiation): 0
skin reaction on UVA irradiation, treated skin ([2]; test subject 5, day 5, after irradiation): 0
skin reaction on UVA irradiation, treated skin ([2]; test subject 5, day 5, before irradiation): 0
skin reaction on UVA irradiation, treated skin ([2]; test subject 6, day 1, after irradiation): 0
skin reaction on UVA irradiation, treated skin ([2]; test subject 6, day 1, before irradiation): 0
skin reaction on UVA irradiation, treated skin ([2]; test subject 6, day 2, after irradiation): 0
skin reaction on UVA irradiation, treated skin ([2]; test subject 6, day 2, before irradiation): 0
skin reaction on UVA irradiation, treated skin ([2]; test subject 6, day 3, after irradiation): ±
skin reaction on UVA irradiation, treated skin ([2]; test subject 6, day 3, before irradiation): ±
skin reaction on UVA irradiation, treated skin ([2]; test subject 6, day 4, after irradiation): ±
skin reaction on UVA irradiation, treated skin ([2]; test subject 6, day 4, before irradiation): ±
skin reaction on UVA irradiation, treated skin ([2]; test subject 6, day 5, after irradiation): ±
skin reaction on UVA irradiation, treated skin ([2]; test subject 6, day 5, before irradiation): ±
activation of the transcription factor NF-κB [3]: inhibits activation

— US10660867B2, “Beta-hydroxyketones as topical active ingredients for the prevention or treatment of photodermatoses” (Merck Patent GmbH, priority 2015, dated 2020)
